Patent publication EP0738149B1 (priority 1994, dated 1995)

Legend:
[1] = system: hypoxic rat; experiment: α-MpT-induced hypokinesia in hypoxic rat (locomotor activity), Experiments 1A-1C; type: in vivo; details: Mean ± SEM
Protocol: Experiment 1A. Wistar male rats, 15-19 month-old, were exposed to a single hypoxic episode which is assumed to decrease the level of dopamine in the brain. […] The drugs were administered by gavage, using a special syringe equipped with rounded tip that could be directed into the stomach. The dose was contained in 0.3-0.5 mL of distilled water. The rats were pretreated for 70-80 days with daily doses of the test drugs and received intra-peritoneal (i.p.) α-MpT (α-methyl-p-tyrosine) at a dose of 100mg/kg in 0.3-0.5 mL saline. Controls received saline. α-MpT is assumed to inhibit the formation of L-Dopa from tyrosine and, consequently the formation of dopamine itself. Lack of central dopamine is expressed as hypokinesia. Following the injection of α-MpT, motor activity was recorded for the duration of 10 hours. Locomotion scores were taken in seven fully-computerized cages (26x25cm) having a grid of infra-red beams at 4 cm-intervals. Crossing of a beam initiated an electric signal which was fed into a computer. The number of crossings over a given period provided a measure of locomotion. The records gave two data categories: (a) "small movements" originating in stationary activities such as grooming and scratching and (b) "big movements" originating in ambulation and recorded as the simultaneous crossing of more than two beams."Total movements" include both categories. Counts of motor activity in the presence of α-MpT were related as percent with respect to counts in its absence in the corresponding control group (unlesioned or hypoxia-lesioned). Motor activity counts of drug-treated rats were related to the hypoxia saline-treated as 100%. All behavioral tests were performed 90-120 min. after administration of the last dose of the test compound.
Experiment 1B. […] The drugs were given i.p. • (3) Duration of the treatment: 21 days. • (4) Dose of α-MpT: 70 mg/Kg.

[2] = system: rats; experiment: Closed head injury in rats: motor function (Neurological Severity Status), Experiments 4A-4E
[3] = biological target: T1, MAO-A (Rattus norvegicus, UniProt P21396); details: ex vivo brain
T1 sequence (P21396 1-526): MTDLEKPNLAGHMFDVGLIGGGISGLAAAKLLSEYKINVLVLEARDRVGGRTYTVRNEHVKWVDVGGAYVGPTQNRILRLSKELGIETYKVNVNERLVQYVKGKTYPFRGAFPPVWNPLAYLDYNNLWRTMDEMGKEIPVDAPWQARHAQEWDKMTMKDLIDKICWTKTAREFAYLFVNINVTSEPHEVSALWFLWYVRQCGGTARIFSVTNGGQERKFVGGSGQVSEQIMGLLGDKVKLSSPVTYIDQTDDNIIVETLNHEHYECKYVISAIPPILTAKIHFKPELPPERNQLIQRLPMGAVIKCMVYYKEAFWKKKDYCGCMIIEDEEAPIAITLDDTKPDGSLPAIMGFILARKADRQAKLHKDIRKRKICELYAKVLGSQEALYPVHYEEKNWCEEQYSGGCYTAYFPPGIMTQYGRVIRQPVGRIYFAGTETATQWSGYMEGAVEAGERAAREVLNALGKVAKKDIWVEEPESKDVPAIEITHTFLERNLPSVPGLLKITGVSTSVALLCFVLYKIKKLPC
Description: The brains of some rats from each experimental group in Exp. 1 (chronic treatment of 80 days) and Exp. 2 (acute treatment of 14 days) were ex vivo analyzed for MAO-A and MAO-B activity.

[4] = system: rats; details: Rattus norvegicus, po, read-out: RATS scMet ED50
[5] = Exp 1A, 0.5mg/kg/Day gavage 70-80 days, α-MpT 100mg/kg i.p., Hour 1
[6] = Exp 1A, 0.5mg/kg/Day gavage 70-80 days, α-MpT 100mg/kg i.p., Hour 2
[7] = Exp 1A, 0.5mg/kg/Day gavage 70-80 days, α-MpT 100mg/kg i.p., Hour 3
[8] = Exp 1A, 0.5mg/kg/Day gavage 70-80 days, α-MpT 100mg/kg i.p., Hour 4
[9] = Exp 1A, 0.5mg/kg/Day gavage 70-80 days, α-MpT 100mg/kg i.p., Hour 5
[10] = Exp 1A, 0.5mg/kg/Day gavage 70-80 days, α-MpT 100mg/kg i.p., Hour 7
[11] = Exp 1A, 0.5mg/kg/Day gavage 70-80 days, α-MpT 100mg/kg i.p., Hour 8
[12] = Exp 1A, 0.5mg/kg/Day gavage 70-80 days, α-MpT 100mg/kg i.p., Hour 9
[13] = Exp 1A, 0.5mg/kg/Day gavage 70-80 days, α-MpT 100mg/kg i.p., Hour 10
[14] = Exp 1B, 0.3 mg/Kg daily i.p. 21 days, α-MpT 70 mg/Kg, Hour 1
[15] = Exp 1B, 0.3 mg/Kg daily i.p. 21 days, α-MpT 70 mg/Kg, Hour 2
[16] = Exp 1B, 0.3 mg/Kg daily i.p. 21 days, α-MpT 70 mg/Kg, Hour 3
[17] = Exp 1B, 0.3 mg/Kg daily i.p. 21 days, α-MpT 70 mg/Kg, Hour 4
[18] = Exp 1B, 0.3 mg/Kg daily i.p. 21 days, α-MpT 70 mg/Kg, Hour 5
[19] = Exp 1B, 0.3 mg/Kg daily i.p. 21 days, α-MpT 70 mg/Kg, Hour 6
[20] = Exp 1B, 0.3 mg/Kg daily i.p. 21 days, α-MpT 70 mg/Kg, Hour 7
[21] = Exp 1B, 0.3 mg/Kg daily i.p. 21 days, α-MpT 70 mg/Kg, Hour 8
[22] = Exp 1B, 0.3 mg/Kg daily i.p. 21 days, α-MpT 70 mg/Kg, Hour 9
[23] = Exp 1B, 0.3 mg/Kg daily i.p. 21 days, α-MpT 70 mg/Kg, Hour 10
[24] = Exp 4A, 0.1mg/kg i.p. at 0,4,8 and 12 hours post-trauma
[25] = Exp 4B, 0.1mg/kg once a day for 14 days

## C#CCN(C)[C@H](C)Cc1ccccc1 [deprenyl]
[1]; [5]
  Locomotor activity after α-MpT treatment, recorded as big movements: 61 ± 15%
  Locomotor activity after α-MpT treatment, recorded as total movements: 88 ± 23%
[1]; [6]
  Locomotor activity after α-MpT treatment, recorded as big movements: 103 ± 22%
  Locomotor activity after α-MpT treatment, recorded as total movements: 131 ± 30%
[1]; [7]
  Locomotor activity after α-MpT treatment, recorded as big movements: 184 ± 39%
  Locomotor activity after α-MpT treatment, recorded as total movements: 141 ± 26%
[1]; [8]
  Locomotor activity after α-MpT treatment, recorded as big movements: 85 ± 34%
  Locomotor activity after α-MpT treatment, recorded as total movements: 191 ± 45%
[1]; [9]
  Locomotor activity after α-MpT treatment, recorded as big movements: 171 ± 61%
  Locomotor activity after α-MpT treatment, recorded as total movements: 229 ± 40%
[1]; Exp 1A, 0.5mg/kg/Day gavage 70-80 days, α-MpT 100mg/kg i.p., Hour 6
  Locomotor activity after α-MpT treatment, recorded as big movements: 65 ± 17%
[1]; [10]
  Locomotor activity after α-MpT treatment, recorded as big movements: 96 ± 29%
  Locomotor activity after α-MpT treatment, recorded as total movements: 204 ± 7%
[1]; [11]
  Locomotor activity after α-MpT treatment, recorded as big movements: 91 ± 40%
  Locomotor activity after α-MpT treatment, recorded as total movements: 131 ± 23%
[1]; [12]
  Locomotor activity after α-MpT treatment, recorded as big movements: 84 ± 23%
  Locomotor activity after α-MpT treatment, recorded as total movements: 137 ± 21%
[1]; [13]
  Locomotor activity after α-MpT treatment, recorded as big movements: 29 ± 10%
  Locomotor activity after α-MpT treatment, recorded as total movements: 116 ± 22%
[1]; [14]
  Locomotor activity after α-MpT treatment, recorded as big movements: 70 ± 10%
  Locomotor activity after α-MpT treatment, recorded as total movements: 68 ± 9%
[1]; [15]
  Locomotor activity after α-MpT treatment, recorded as big movements: 91 ± 19%
  Locomotor activity after α-MpT treatment, recorded as total movements: 95 ± 11%
[1]; [16]
  Locomotor activity after α-MpT treatment, recorded as big movements: 85 ± 19%
  Locomotor activity after α-MpT treatment, recorded as total movements: 126 ± 22%
[1]; [17]
  Locomotor activity after α-MpT treatment, recorded as big movements: 88 ± 23%
  Locomotor activity after α-MpT treatment, recorded as total movements: 118 ± 20%
[1]; [18]
  Locomotor activity after α-MpT treatment, recorded as big movements: 87 ± 11%
  Locomotor activity after α-MpT treatment, recorded as total movements: 83 ± 24%
[1]; [19]
  Locomotor activity after α-MpT treatment, recorded as big movements: 67 ± 8%
  Locomotor activity after α-MpT treatment, recorded as total movements: 78 ± 9%
[1]; [20]
  Locomotor activity after α-MpT treatment, recorded as big movements: 62 ± 9%
  Locomotor activity after α-MpT treatment, recorded as total movements: 56 ± 7%
[1]; [21]
  Locomotor activity after α-MpT treatment, recorded as big movements: 70 ± 9%
  Locomotor activity after α-MpT treatment, recorded as total movements: 85 ± 13%
[1]; [22]
  Locomotor activity after α-MpT treatment, recorded as big movements: 132 ± 24%
  Locomotor activity after α-MpT treatment, recorded as total movements: 111 ± 12%
[1]; [23]
  Locomotor activity after α-MpT treatment, recorded as big movements: 54 ± 13%
  Locomotor activity after α-MpT treatment, recorded as total movements: 61 ± 12%

## N[C@@H]1CCc2ccccc21 [R-AI, (R)-1-aminoindan]
[2]; [24]
  NSS 1hr: 16.8
  NSS 24hr: 8.3
[2]; Exp 4A, 0.1mg/kg i.p. at 0,4,8 and 12 hours post-trauma, change 1 hour to 24 hours
  ΔNSS: 8.5±0.5
[2]; [25]
  NSS at 1hr: 17.7±0.5
  ΔNSS at 24hr: 7.3±0.8
  ΔNSS at 48hr: 9.3±0.8
  ΔNSS at 7d: 11.8±0.5
  ΔNSS at 14d: 14.0±0.4
[2]; Exp 4C, 0.03 mg/kg
  NSS 1hr: 16.3
  NSS 24hr: 10.4
  ΔNSS: 5.9±0.3
[2]; Exp 4C, 0.1 mg/kg
  NSS 1hr: 16.2
  NSS 24hr: 10.4
  ΔNSS: 5.8±0.4
[2]; Exp 4C, 0.3 mg/kg
  NSS 1hr: 16.6
  NSS 24hr: 8.5
  ΔNSS: 8.1±0.5
[2]; Exp 4C, 1.0 mg/kg
  NSS 1hr: 16.8
  NSS 24hr: 8.8
  ΔNSS: 8.0±0.5
[2]; Exp 4C, 3.0 mg/kg
  NSS 1hr: 16.4
  NSS 24hr: 7.8
  ΔNSS: 8.6±0.7
[2]; Exp 4D, 1mg/kg, times of administration 0
  ΔNSS: 8.8±10.8
[2]; Exp 4D, 1mg/kg, times of administration 0 + 4h
  ΔNSS: 8.0±1.0
[2]; Exp 4D, 1mg/kg, times of administration 0 + 8h
  ΔNSS: 8.0±0.1
[2]; Exp 4D, 1mg/kg, times of administration 0 + 12h
  ΔNSS: 8.7±0.6
[2]; Exp 4D, 1mg/kg, times of administration 0,4,8,12h
  ΔNSS: 8.2±0.7
[2]; Exp 4E, 1mg/kg given + 1h post head trauma
  ΔNSS: 8.4±0.6
[2]; Exp 4E, 1mg/kg given + 2h post head trauma
  ΔNSS: 7.0±0.5
[2]; Exp 4E, 1mg/kg given + 3h post head trauma
  ΔNSS: 7.4±0.5
[3]; acute treatment of 14 days
  % inhibition of MAO A acute treatment: 13%
[3]; chronic treatment of 80 days
  % inhibition of MAO A chronic treatment: 6%

## CC(=O)N[C@@H]1CCc2ccccc21 [Example 18, (R)-N-Acetyl-1-aminoindan]
[4]
  ED50: > 250 mg/kg
